Data: the NIST ThermoML archive (doi:10.1016/j.jct.2014.01.008)
Where “and” joins values, the source holds several entries; their conditions need not be identical. Equal entries are not always repeated. Numbers after ± are expanded uncertainties.

Key:
[1] = Liquid, Falling or rolling sphere viscometry
[2] = Solid-liquid equilibrium temperature; details: Crystal, visual observation

CCCCCCCCCCCCCCCCCCCC [eicosane]
[1]
Details	viscosity
325.8 K, 6700 kPa	3.184 ± 0.086 mPa·s and 3.193 ± 0.086 mPa·s
325.8 K, 14400 kPa	3.511 ± 0.094 mPa·s and 3.528 ± 0.095 mPa·s
325.8 K, 21300 kPa	3.828 ± 0.1 mPa·s
325.8 K, 22300 kPa	3.908 ± 0.11 mPa·s
325.8 K, 28700 kPa	4.25 ± 0.11 mPa·s
325.8 K, 35500 kPa	4.642 ± 0.12 mPa·s
429.3 K, 5500 kPa	0.837 ± 0.027 mPa·s
429.3 K, 7400 kPa	0.858 ± 0.028 mPa·s
429.3 K, 21800 kPa	1.029 ± 0.034 mPa·s
429.3 K, 41800 kPa	1.262 ± 0.041 mPa·s
429.3 K, 63000 kPa	1.498 ± 0.048 mPa·s and 1.523 ± 0.049 mPa·s
429.3 K, 83000 kPa	1.777 ± 0.057 mPa·s
429.3 K, 103700 kPa	2.043 ± 0.065 mPa·s
429.3 K, 125000 kPa	2.351 ± 0.075 mPa·s
429.3 K, 144500 kPa	2.631 ± 0.083 mPa·s
429.3 K, 144700 kPa	2.638 ± 0.084 mPa·s
429.3 K, 167900 kPa	2.988 ± 0.095 mPa·s
429.3 K, 187900 kPa	3.321 ± 0.11 mPa·s
429.3 K, 208900 kPa	3.685 ± 0.12 mPa·s
429.3 K, 228600 kPa	4.04 ± 0.13 mPa·s
429.3 K, 243100 kPa	4.327 ± 0.14 mPa·s
533.8 K, 6200 kPa	0.346 ± 0.011 mPa·s
533.8 K, 22900 kPa	0.425 ± 0.014 mPa·s
533.8 K, 43300 kPa	0.541 ± 0.017 mPa·s
533.8 K, 43500 kPa	0.541 ± 0.017 mPa·s
533.8 K, 63200 kPa	0.647 ± 0.021 mPa·s
533.8 K, 84300 kPa	0.75 ± 0.024 mPa·s
533.8 K, 104400 kPa	0.861 ± 0.028 mPa·s
533.8 K, 125000 kPa	0.977 ± 0.032 mPa·s
533.8 K, 146100 kPa	1.097 ± 0.036 mPa·s
533.8 K, 165900 kPa	1.199 ± 0.039 mPa·s
533.8 K, 187300 kPa	1.341 ± 0.044 mPa·s
533.8 K, 208200 kPa	1.444 ± 0.047 mPa·s
533.8 K, 228800 kPa	1.556 ± 0.051 mPa·s

[2]
Details	Solid-liquid equilibrium temperature [K]
21600 kPa	315.6 ± 0.7
61500 kPa	325.3 ± 0.7
105500 kPa	334.8 ± 0.7
153800 kPa	344.6 ± 0.7
218800 kPa	355.9 ± 0.7
263800 kPa	364.3 ± 0.7

CCCCCCCCCCCCCCCC [hexadecane]
[1]
Details	viscosity
303.9 K, 3300 kPa	2.826 ± 0.08 mPa·s
303.9 K, 7300 kPa	2.959 ± 0.084 mPa·s
303.9 K, 12900 kPa	3.184 ± 0.089 mPa·s
303.9 K, 19000 kPa	3.454 ± 0.098 mPa·s
303.9 K, 26800 kPa	3.793 ± 0.11 mPa·s
303.9 K, 33600 kPa	4.107 ± 0.12 mPa·s
325.7 K, 8100 kPa	1.943 ± 0.059 mPa·s
325.7 K, 8300 kPa	1.956 ± 0.059 mPa·s
325.7 K, 21500 kPa	2.263 ± 0.069 mPa·s
325.7 K, 35600 kPa	2.675 ± 0.082 mPa·s
325.7 K, 49300 kPa	3.067 ± 0.082 mPa·s
325.7 K, 63600 kPa	3.55 ± 0.098 mPa·s
325.7 K, 77500 kPa	4.056 ± 0.11 mPa·s
325.7 K, 91800 kPa	4.625 ± 0.13 mPa·s
325.7 K, 104100 kPa	5.179 ± 0.14 mPa·s
325.7 K, 119200 kPa	5.865 ± 0.16 mPa·s
325.7 K, 122700 kPa	6.07 ± 0.17 mPa·s
429.1 K, 12800 kPa	0.582 ± 0.019 mPa·s and 0.586 ± 0.019 mPa·s
429.1 K, 22200 kPa	0.649 ± 0.036 mPa·s
429.1 K, 22700 kPa	0.65 ± 0.036 mPa·s
429.1 K, 35800 kPa	0.742 ± 0.024 mPa·s
429.1 K, 70500 kPa	1.01 ± 0.034 mPa·s
429.1 K, 91600 kPa	1.181 ± 0.04 mPa·s
429.1 K, 118800 kPa	1.405 ± 0.048 mPa·s
429.1 K, 140300 kPa	1.594 ± 0.05 mPa·s
429.1 K, 167800 kPa	1.847 ± 0.058 mPa·s
429.1 K, 188000 kPa	2.046 ± 0.065 mPa·s
429.1 K, 222900 kPa	2.459 ± 0.078 mPa·s
533.7 K, 14100 kPa	0.272 ± 0.009 mPa·s
533.7 K, 14300 kPa	0.276 ± 0.009 mPa·s
533.7 K, 29900 kPa	0.341 ± 0.011 mPa·s
533.7 K, 30100 kPa	0.342 ± 0.011 mPa·s
533.7 K, 50400 kPa	0.43 ± 0.014 mPa·s
533.7 K, 50500 kPa	0.433 ± 0.014 mPa·s
533.7 K, 77100 kPa	0.534 ± 0.017 mPa·s
533.7 K, 104600 kPa	0.642 ± 0.021 mPa·s
533.7 K, 125000 kPa	0.721 ± 0.023 mPa·s
533.7 K, 152800 kPa	0.829 ± 0.026 mPa·s
533.7 K, 188400 kPa	0.983 ± 0.031 mPa·s
533.7 K, 210000 kPa	1.077 ± 0.035 mPa·s
533.7 K, 226600 kPa	1.154 ± 0.037 mPa·s

[2]
Details	Solid-liquid equilibrium temperature [K]
54300 kPa	303.6 ± 0.7
106300 kPa	314.5 ± 0.7
158900 kPa	325 ± 0.7
210600 kPa	333.9 ± 0.7
267700 kPa	344.4 ± 0.7

CCCCCCCCCCCCCCCCCC [octadecane]
[1]
Details	viscosity
325.6 K, 9800 kPa	2.598 ± 0.07 mPa·s
325.6 K, 16400 kPa	2.778 ± 0.075 mPa·s
325.6 K, 29600 kPa	3.247 ± 0.087 mPa·s
325.6 K, 37200 kPa	3.568 ± 0.096 mPa·s
325.6 K, 51000 kPa	4.157 ± 0.11 mPa·s
325.6 K, 60500 kPa	4.578 ± 0.13 mPa·s
325.6 K, 69000 kPa	4.98 ± 0.14 mPa·s
325.6 K, 70800 kPa	5.095 ± 0.14 mPa·s
428.9 K, 6800 kPa	0.685 ± 0.023 mPa·s
428.9 K, 21900 kPa	0.831 ± 0.027 mPa·s
428.9 K, 42100 kPa	1.023 ± 0.033 mPa·s
428.9 K, 63400 kPa	1.232 ± 0.041 mPa·s
428.9 K, 84300 kPa	1.446 ± 0.047 mPa·s
428.9 K, 104900 kPa	1.649 ± 0.053 mPa·s
428.9 K, 125500 kPa	1.878 ± 0.059 mPa·s
428.9 K, 147800 kPa	2.125 ± 0.067 mPa·s
428.9 K, 168000 kPa	2.392 ± 0.076 mPa·s
428.9 K, 188600 kPa	2.65 ± 0.084 mPa·s
428.9 K, 209600 kPa	2.928 ± 0.092 mPa·s
428.9 K, 230000 kPa	3.207 ± 0.1 mPa·s
428.9 K, 243100 kPa	3.396 ± 0.11 mPa·s
533.9 K, 9200 kPa	0.303 ± 0.01 mPa·s
533.9 K, 9500 kPa	0.305 ± 0.01 mPa·s
533.9 K, 15200 kPa	0.336 ± 0.011 mPa·s
533.9 K, 22500 kPa	0.38 ± 0.012 mPa·s
533.9 K, 44600 kPa	0.497 ± 0.016 mPa·s
533.9 K, 64000 kPa	0.579 ± 0.019 mPa·s
533.9 K, 85700 kPa	0.686 ± 0.022 mPa·s
533.9 K, 105900 kPa	0.784 ± 0.025 mPa·s
533.9 K, 126600 kPa	0.88 ± 0.028 mPa·s
533.9 K, 147600 kPa	0.975 ± 0.031 mPa·s and 0.985 ± 0.032 mPa·s
533.9 K, 167700 kPa	1.077 ± 0.035 mPa·s
533.9 K, 188600 kPa	1.201 ± 0.039 mPa·s
533.9 K, 209100 kPa	1.313 ± 0.042 mPa·s
533.9 K, 229300 kPa	1.411 ± 0.045 mPa·s
533.9 K, 242900 kPa	1.491 ± 0.048 mPa·s

[2]
Details	Solid-liquid equilibrium temperature [K]
59900 kPa	315.2 ± 0.7
102800 kPa	324.6 ± 0.7
151000 kPa	334.8 ± 0.7
205400 kPa	344.7 ± 0.7
256400 kPa	354.2 ± 0.7
